From patent US5739278A, “Compositions for protein tyrosine phosphatases” (University of Washington, priority 1995, dated 1998)

Assays:
Assay in all cases: Phosphatase assay with ENDY(P)INASL as substrate
Format in all cases: biochemical
PTP1B = molecular target: T1, PTP1B (Homo sapiens, UniProt P18031)
T1 construct: The 37 kDa form of PTP1B; from tissue; host or cells: placenta
T1 sequence (P18031 1-321 limits assumed): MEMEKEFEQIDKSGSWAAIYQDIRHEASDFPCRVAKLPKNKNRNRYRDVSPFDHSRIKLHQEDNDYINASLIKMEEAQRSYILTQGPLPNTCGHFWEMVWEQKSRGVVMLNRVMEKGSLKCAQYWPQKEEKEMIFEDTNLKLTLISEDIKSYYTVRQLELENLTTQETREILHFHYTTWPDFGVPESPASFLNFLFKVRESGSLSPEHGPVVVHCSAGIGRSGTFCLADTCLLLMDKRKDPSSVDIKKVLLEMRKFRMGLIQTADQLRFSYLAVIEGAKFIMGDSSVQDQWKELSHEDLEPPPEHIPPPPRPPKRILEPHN
Method: (§1) The tyrosine phosphatases TC.PTP, TCΔC11.PTP, and RPTPα were purified from infected Sf9 cells as described recently (Zander et al., Biochemistry 30: 6964-6970, 1991; Daum et al., J. Biol. Chem. 266: 12211-12215, 1991). The 37 kDa form of PTP1B and CD45 were purified from placenta and spleen, respectively (according to Tonks et al., J. Biol. Chem. 263: 6722-6730, 1988; Tonks et al., Biochemistry 27: 8695-8701, 1988).
(§2) Phosphatase assays with ENDY(P)INASL were performed in buffer M6. Aliquots of 30 μl or 60 μl containing the phosphopeptide, the phosphatase (-beads) and effectors were incubated for 10 minutes at 30° C. The reaction was stopped by adding 200 μl of a suspension of 10% activated, acid-washed Norit A charcoal (v/v) in 0.9N HCl, 0.1M pyrophosphate and 2 mM NaH2 PO4 (according to Streuli et al., Proc. Natl. Acad. Sci. USA 86: 8698-8702, 1989). The mixture was cleared by 10-minute centrifugation and the radioactivity of 150 μl of the supernate was determined. Assays with MBP and RCML were performed as described in Tonks et al., J. Biol. Chem. 263: 6722-6730, 1988. Protein concentration was determined with BSA as standard (Bradford, Anal. Biochem. 72: 248-254, 1976).

RPTPα = molecular target: T2, RPTPα (Homo sapiens, UniProt P18433)
T2 construct: made in house; host or cells: Sf9 cells (baculovirus)
Method: as §1, §2

CD45 = molecular target: T3, CD45 (Homo sapiens, UniProt P08575)
T3 construct: CD45 were purified from placenta and spleen, respectively; from tissue; host or cells: spleen
T3 sequence (P08575 26-1306): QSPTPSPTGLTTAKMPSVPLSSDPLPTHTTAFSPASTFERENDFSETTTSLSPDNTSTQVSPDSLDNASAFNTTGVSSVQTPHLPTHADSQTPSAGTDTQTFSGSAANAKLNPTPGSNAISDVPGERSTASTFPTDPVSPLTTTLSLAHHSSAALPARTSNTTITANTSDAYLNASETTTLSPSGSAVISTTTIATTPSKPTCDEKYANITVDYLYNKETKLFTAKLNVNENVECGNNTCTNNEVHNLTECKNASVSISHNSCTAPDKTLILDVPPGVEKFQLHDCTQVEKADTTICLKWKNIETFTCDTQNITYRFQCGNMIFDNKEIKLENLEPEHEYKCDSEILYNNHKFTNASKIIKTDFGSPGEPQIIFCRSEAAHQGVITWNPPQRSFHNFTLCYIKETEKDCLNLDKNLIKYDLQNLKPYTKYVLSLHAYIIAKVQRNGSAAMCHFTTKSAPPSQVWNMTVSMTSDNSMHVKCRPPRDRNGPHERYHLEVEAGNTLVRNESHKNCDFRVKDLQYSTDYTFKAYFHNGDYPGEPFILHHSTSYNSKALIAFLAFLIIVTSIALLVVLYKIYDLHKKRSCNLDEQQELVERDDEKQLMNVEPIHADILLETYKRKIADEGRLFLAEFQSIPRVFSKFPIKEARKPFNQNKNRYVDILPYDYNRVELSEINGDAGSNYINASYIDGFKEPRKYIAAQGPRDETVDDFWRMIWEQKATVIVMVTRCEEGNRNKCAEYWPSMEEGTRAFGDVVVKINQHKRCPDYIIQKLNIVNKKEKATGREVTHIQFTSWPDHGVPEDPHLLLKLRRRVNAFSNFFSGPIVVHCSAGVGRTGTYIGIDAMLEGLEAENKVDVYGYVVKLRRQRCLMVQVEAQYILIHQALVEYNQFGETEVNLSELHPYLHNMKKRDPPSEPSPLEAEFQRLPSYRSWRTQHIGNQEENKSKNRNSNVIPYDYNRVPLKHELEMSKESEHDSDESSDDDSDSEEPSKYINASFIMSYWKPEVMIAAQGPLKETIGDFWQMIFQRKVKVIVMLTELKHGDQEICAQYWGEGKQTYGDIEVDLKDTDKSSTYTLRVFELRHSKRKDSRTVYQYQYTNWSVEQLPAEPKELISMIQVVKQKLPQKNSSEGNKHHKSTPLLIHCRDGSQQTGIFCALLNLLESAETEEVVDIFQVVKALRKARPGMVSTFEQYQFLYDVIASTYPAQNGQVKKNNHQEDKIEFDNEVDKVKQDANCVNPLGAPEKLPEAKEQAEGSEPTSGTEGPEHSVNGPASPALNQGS
Method: as §1, §2

TCΔC11.PTP = molecular target: T4, TCΔC11.PTP (Homo sapiens, UniProt P17706)
T4 construct: both the wild type and truncated forms of the T-cell phosphatase; made in house; host or cells: Sf9 cells (baculovirus)
T4 sequence (P17706 1-317 limits assumed): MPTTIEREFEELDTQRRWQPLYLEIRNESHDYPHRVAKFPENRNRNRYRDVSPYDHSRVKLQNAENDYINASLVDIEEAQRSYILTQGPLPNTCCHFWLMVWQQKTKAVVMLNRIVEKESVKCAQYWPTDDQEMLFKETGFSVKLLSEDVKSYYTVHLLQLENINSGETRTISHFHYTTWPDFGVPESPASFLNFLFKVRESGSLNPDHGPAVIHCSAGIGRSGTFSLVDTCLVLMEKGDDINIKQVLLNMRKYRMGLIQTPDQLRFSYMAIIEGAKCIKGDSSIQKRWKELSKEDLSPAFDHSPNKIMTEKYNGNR
Method: as §1, §2

TC.PTP = molecular target: T5, TC.PTP (Homo sapiens, UniProt P17706); conditions: TC.PTP
T5 construct: made in house; host or cells: Sf9 cells (baculovirus)
T5 sequence (P17706 1-415): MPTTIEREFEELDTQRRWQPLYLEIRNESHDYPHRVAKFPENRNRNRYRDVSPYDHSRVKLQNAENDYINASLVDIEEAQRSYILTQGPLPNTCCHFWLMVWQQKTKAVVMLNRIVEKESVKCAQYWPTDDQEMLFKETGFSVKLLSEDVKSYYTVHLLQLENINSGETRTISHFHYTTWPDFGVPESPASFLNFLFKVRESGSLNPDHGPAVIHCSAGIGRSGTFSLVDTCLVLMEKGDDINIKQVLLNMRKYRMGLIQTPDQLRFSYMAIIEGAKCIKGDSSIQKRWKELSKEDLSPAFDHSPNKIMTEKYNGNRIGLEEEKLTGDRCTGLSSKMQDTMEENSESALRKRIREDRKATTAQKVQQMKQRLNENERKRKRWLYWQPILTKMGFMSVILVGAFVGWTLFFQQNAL
Method: as §1, §2

T2 sequence (P18433 20-802): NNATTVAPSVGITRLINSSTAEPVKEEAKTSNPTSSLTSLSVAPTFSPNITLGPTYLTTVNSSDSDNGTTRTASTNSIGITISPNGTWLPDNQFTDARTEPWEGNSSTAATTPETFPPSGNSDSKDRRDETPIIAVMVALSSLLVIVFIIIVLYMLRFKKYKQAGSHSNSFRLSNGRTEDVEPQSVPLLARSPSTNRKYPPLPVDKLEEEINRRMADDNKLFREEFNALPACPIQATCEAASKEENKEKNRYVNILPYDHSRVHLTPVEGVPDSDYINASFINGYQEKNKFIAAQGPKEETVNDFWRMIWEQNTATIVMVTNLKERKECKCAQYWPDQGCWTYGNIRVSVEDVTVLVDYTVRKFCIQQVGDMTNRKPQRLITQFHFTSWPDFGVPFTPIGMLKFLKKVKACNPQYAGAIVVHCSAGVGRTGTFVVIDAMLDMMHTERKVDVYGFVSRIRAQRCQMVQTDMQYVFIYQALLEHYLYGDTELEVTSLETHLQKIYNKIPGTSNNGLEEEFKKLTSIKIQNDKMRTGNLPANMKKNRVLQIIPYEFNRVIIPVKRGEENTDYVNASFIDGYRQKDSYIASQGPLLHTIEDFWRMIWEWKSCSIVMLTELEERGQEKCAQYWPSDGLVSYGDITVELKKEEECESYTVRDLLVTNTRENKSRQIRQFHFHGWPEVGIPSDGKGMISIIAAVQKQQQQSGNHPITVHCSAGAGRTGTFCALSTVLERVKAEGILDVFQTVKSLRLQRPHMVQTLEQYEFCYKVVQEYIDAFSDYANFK

Compound: heparin
- Phosphatase activity in percent of the value obtained in the absence of effectors (PTP1B; effector 0.01 μM): 91%
- Phosphatase activity in percent of the value obtained in the absence of effectors (PTP1B; effector 0.1 μM): 0%
- Phosphatase activity in percent of the value obtained in the absence of effectors (PTP1B; effector 1.0 μM): 0%
- Phosphatase activity in percent of the value obtained in the absence of effectors (RPTPα; effector 0.01 μM): 82%
- Phosphatase activity in percent of the value obtained in the absence of effectors (RPTPα; effector 0.1 μM): 40%
- Phosphatase activity in percent of the value obtained in the absence of effectors (RPTPα; effector 1.0 μM): 19%
- Phosphatase activity in percent of the value obtained in the absence of effectors (CD45; effector 0.01 μM): 8%
- Phosphatase activity in percent of the value obtained in the absence of effectors (CD45; effector 0.1 μM): 0%
- Phosphatase activity in percent of the value obtained in the absence of effectors (CD45; effector 1.0 μM): 0%
- Phosphatase activity in percent of the value obtained in the absence of effectors (TCΔC11.PTP; effector 0.01 μM): 88%
- Phosphatase activity in percent of the value obtained in the absence of effectors (TCΔC11.PTP; effector 0.1 μM): 4%
- Phosphatase activity in percent of the value obtained in the absence of effectors (TCΔC11.PTP; effector 1.0 μM): 0%
- Phosphatase activity in percent of the value obtained in the absence of effectors (TC.PTP; effector 0.01 μM): 8%
- Phosphatase activity in percent of the value obtained in the absence of effectors (TC.PTP; effector 0.1 μM): 1%
- Phosphatase activity in percent of the value obtained in the absence of effectors (TC.PTP; effector 1.0 μM): 0%

Compound: O=C(O)CN(CCN(CC(=O)O)CC(=O)O)CC(=O)O [EDTA]
- Phosphatase activity in percent of the value obtained in the absence of effectors (PTP1B; effector 1.0 mM): 139%
- Phosphatase activity in percent of the value obtained in the absence of effectors (PTP1B; effector 3.0 mM): 125%
- Phosphatase activity in percent of the value obtained in the absence of effectors (PTP1B; effector 5.0 mM): 110%
- Phosphatase activity in percent of the value obtained in the absence of effectors (RPTPα; effector 1.0 mM): 115%
- Phosphatase activity in percent of the value obtained in the absence of effectors (RPTPα; effector 3.0 mM): 97%
- Phosphatase activity in percent of the value obtained in the absence of effectors (RPTPα; effector 5.0 mM): 86%
- Phosphatase activity in percent of the value obtained in the absence of effectors (CD45; effector 1.0 mM): 96%
- Phosphatase activity in percent of the value obtained in the absence of effectors (CD45; effector 3.0 mM): 78%
- Phosphatase activity in percent of the value obtained in the absence of effectors (CD45; effector 5.0 mM): 76%
- Phosphatase activity in percent of the value obtained in the absence of effectors (TCΔC11.PTP; effector 1.0 mM): 142%
- Phosphatase activity in percent of the value obtained in the absence of effectors (TCΔC11.PTP; effector 3.0 mM): 109%
- Phosphatase activity in percent of the value obtained in the absence of effectors (TCΔC11.PTP; effector 5.0 mM): 93%
- Phosphatase activity in percent of the value obtained in the absence of effectors (TC.PTP; effector 1.0 mM): 119%
- Phosphatase activity in percent of the value obtained in the absence of effectors (TC.PTP; effector 3.0 mM): 104%
- Phosphatase activity in percent of the value obtained in the absence of effectors (TC.PTP; effector 5.0 mM): 80%

Compound: [Zn+2] [Zn^2+]
- Phosphatase activity in percent of the value obtained in the absence of effectors (PTP1B; effector 0.01 mM): 65%
- Phosphatase activity in percent of the value obtained in the absence of effectors (PTP1B; effector 0.1 mM): 17%
- Phosphatase activity in percent of the value obtained in the absence of effectors (PTP1B; effector 1.0 mM): 6%
- Phosphatase activity in percent of the value obtained in the absence of effectors (RPTPα; effector 0.01 mM): 99%
- Phosphatase activity in percent of the value obtained in the absence of effectors (RPTPα; effector 0.1 mM): 77%
- Phosphatase activity in percent of the value obtained in the absence of effectors (RPTPα; effector 1.0 mM): 4%
- Phosphatase activity in percent of the value obtained in the absence of effectors (CD45; effector 0.01 mM): 92%
- Phosphatase activity in percent of the value obtained in the absence of effectors (CD45; effector 0.1 mM): 53%
- Phosphatase activity in percent of the value obtained in the absence of effectors (CD45; effector 1.0 mM): 3%
- Phosphatase activity in percent of the value obtained in the absence of effectors (TCΔC11.PTP; effector 0.01 mM): 61%
- Phosphatase activity in percent of the value obtained in the absence of effectors (TCΔC11.PTP; effector 0.1 mM): 54%
- Phosphatase activity in percent of the value obtained in the absence of effectors (TCΔC11.PTP; effector 1.0 mM): 21%
- Phosphatase activity in percent of the value obtained in the absence of effectors (TC.PTP; effector 0.01 mM): 61%
- Phosphatase activity in percent of the value obtained in the absence of effectors (TC.PTP; effector 0.1 mM): 26%
- Phosphatase activity in percent of the value obtained in the absence of effectors (TC.PTP; effector 1.0 mM): 8%

Compound: [O]=[V]([O-])([O-])[O-] [vanadate]
- Phosphatase activity in percent of the value obtained in the absence of effectors (RPTPα; effector 1.0 μM): 62%
- Phosphatase activity in percent of the value obtained in the absence of effectors (RPTPα; effector 10 μM): 4%
- Phosphatase activity in percent of the value obtained in the absence of effectors (RPTPα; effector 100 μM): 0%
- Phosphatase activity in percent of the value obtained in the absence of effectors (CD45; effector 1.0 μM): 66%
- Phosphatase activity in percent of the value obtained in the absence of effectors (CD45; effector 10 μM): 17%
- Phosphatase activity in percent of the value obtained in the absence of effectors (CD45; effector 100 μM): 4%
